Where “and” joins values, the source holds several entries; their conditions need not be identical. Equal entries are not always repeated.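 A five-concentration, 48-hour dose response in 96-well plates underlies each endpoint, interpolated linearly between surrounding concentrations. GI50 = concentration required for 50% inhibition of growth. At the TGI there is no net growth.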
Legend:
Test in all cases: growth of human tumour cells (NCI), 48 h
[1] = test system: HCT-116 colon
[2] = test system: HCT-15 colon
[3] = test system: MCF7 breast
[4] = test system: NCI-H226 lung
[5] = test system: OVCAR-3 ovarian
[6] = test system: OVCAR-8 ovarian
[7] = test system: PC-3 prostate
[8] = test system: SK-MEL-2 melanoma
[9] = test system: SK-OV-3 ovarian
[10] = test system: U251 CNS

SMILES	GI50 [1]	TGI [1]	GI50 [2]	TGI [2]	GI50 [3]	TGI [3]	GI50 [4]	TGI [4]	GI50 [5]	TGI [5]	GI50 [6]	TGI [6]	GI50 [7]	TGI [7]	GI50 [8]	TGI [8]	GI50 [9]	TGI [9]	GI50 [10]	TGI [10]
COc1ccc2[nH]c(O)c(/C=c3/ccc4c(c3)N=C(c3ccc(F)cc3)N=4)c2c1	1.63 µM	3.37 µM	5.83 µM	> 100 µM	4.53 µM	93.3 µM	2.5 µM	6.33 µM	3.25 µM	11.4 µM	2.07 µM	5.32 µM	4.64 µM	88.6 µM	5.72 µM	44.8 µM	2.62 µM	6.06 µM	3.65 µM	30.8 µM
Cn1c2ccccc2c2nnc(NNCc3ccccn3)nc21	0.409 µM	12.2 µM	0.328 µM	17.9 µM	0.372 µM	14.5 µM	0.324 µM	2.63 µM	0.325 µM	7.12 µM	0.429 µM	20.5 µM	0.594 µM	16.5 µM	5.17 µM	33 µM	0.387 µM	7.22 µM	0.446 µM	14.4 µM
Nc1nc(-c2cc(-c3cccc4ccccc34)nc(N)n2)cc(-c2cccc3ccccc23)n1		> 100 µM		> 100 µM		> 100 µM		> 100 µM		> 100 µM		> 100 µM		> 100 µM		> 100 µM		> 100 µM		> 100 µM
Cc1cc(S(N)(=O)=O)c(S/C(=N\Nc2ccc([N+](=O)[O-])cc2)c2ccc3ccccc3c2)cc1Cl	4.67 µM	> 100 µM	20.1 µM	41 µM	19.9 µM	> 100 µM	18.4 µM	38.3 µM	17.5 µM	58.5 µM	14 µM	> 100 µM	14.2 µM	27.4 µM	> 100 µM	> 100 µM	20.4 µM	55.8 µM	19.7 µM	59.4 µM
COc1ccc2nccc(/C=C/c3ccnc4ccc(OC)cc34)c2c1	38.7 µM	> 100 µM	> 62.8 µM	> 100 µM	2.39 µM	> 38.5 µM	> 100 µM	> 100 µM	> 92 µM	> 100 µM	> 100 µM	> 100 µM	> 47.5 µM	> 79.9 µM	> 53.6 µM	> 78.4 µM	> 77 µM	> 100 µM	> 100 µM	> 100 µM
Cc1ncc(-c2ccnc(Nc3ccc(S(C)(=O)=O)cc3)n2)n1C(C)C	0.275 µM	> 10 µM	1.41 µM	> 8.6 µM	0.523 µM	> 10 µM	0.902 µM	> 8.47 µM	0.853 µM	> 8.42 µM	1.33 µM	> 10 µM	1.3 µM	7.2 µM	1.38 µM	3.17 µM	4.16 µM	> 10 µM	1.11 µM	> 10 µM
Oc1ccccc1C=Nc1ccccc1N=Cc1ccccc1O.[Cu+2]	4.45 µM	16.9 µM	5.81 µM	24.8 µM	2.34 µM	14.1 µM	3.72 µM	16.3 µM	3.35 µM	14.4 µM	2.48 µM	8.44 µM	3.49 µM	16.2 µM	5.81 µM	19.5 µM	5.23 µM	18.3 µM	3.4 µM	14 µM
Cc1cc2c(=O)[nH]c(N)nc2nc1C		> 100 µM		> 100 µM		> 100 µM		> 100 µM		> 100 µM		> 100 µM		> 100 µM		> 100 µM		> 100 µM		> 100 µM
NCCN1C(=O)c2ccccc2C1(O)c1ccc(Cl)cc1 (stereo not drawn)		31.7 µM		> 100 µM		32.6 µM		> 100 µM		> 100 µM		> 100 µM		50 µM		30.8 µM		81.1 µM		29.6 µM
CCN(CC)c1ccc(/C=C/C=C(/C#N)C(N)=S)cc1	3.58 µM	17.7 µM	2.59 µM	> 100 µM	14.5 µM	> 100 µM	5.27 µM	30.9 µM	10.9 µM	> 100 µM	8.07 µM	> 100 µM	5.21 µM	> 100 µM	20.9 µM	> 100 µM	> 100 µM	> 100 µM	7.36 µM	> 100 µM
Cc1cn2c(/C=N/N=C(N)N)c(-c3ccsc3)nc2s1	3.14 µM	12.6 µM	7.81 µM	21.6 µM	3.43 µM	14.8 µM	15.5 µM	31.7 µM	4.02 µM	13.4 µM	16.2 µM	34.4 µM	7.5 µM	20.1 µM	28.3 µM	> 100 µM	10.6 µM	25.6 µM	2.08 µM	5.95 µM
C#CC(=O)OCC#CCOC(=O)C#C		35.7 µM		36.5 µM		44.2 µM		40.3 µM		34.7 µM		96 µM		> 100 µM		40.1 µM		> 100 µM		35.6 µM
CNC(=O)c1cc2c(Oc3ccc(NC(=S)NC(=O)Cc4ccccc4)cc3F)ccnc2cc1OC	59.5 µM	> 100 µM	4.7 µM	> 100 µM	> 100 µM	> 100 µM	5.36 µM	> 100 µM	> 28.6 µM	> 100 µM	> 100 µM	> 100 µM	16.7 µM	> 100 µM	> 29.9 µM	> 100 µM	5.24 µM	> 100 µM	> 100 µM	> 100 µM
Cc1ccc(NC(=O)/C(=N\NC(N)=O)c2c(O)c3ccccc3[nH]c2=O)cc1		> 100 µM		> 100 µM		> 100 µM		> 100 µM		> 100 µM		> 100 µM		> 100 µM		> 100 µM		> 100 µM		> 100 µM
CN1CCN(c2ccc(C(=O)Nc3cccc(C#Cc4cccc5[nH]nc(N)c45)c3)cc2C(F)(F)F)CC1	0.525 µM	1.04 µM	0.644 µM	1.27 µM	0.582 µM	1.14 µM	2.12 µM	6.94 µM	1.38 µM	4.73 µM	1.09 µM	4.77 µM	0.953 µM	7.92 µM	1.7 µM	5.49 µM	1.62 µM	5.34 µM	0.707 µM	1.95 µM
Cn1c(C(C)(C)OC(=O)Oc2ccccc2)cnc1[N+](=O)[O-]		> 100 µM		> 100 µM		> 100 µM		> 100 µM		> 100 µM		> 100 µM		> 100 µM		> 100 µM		> 100 µM		> 100 µM
CN(C)c1ccc(/C=N/NC(=O)c2cccc3ccccc23)c(Cl)c1	0.559 µM	> 100 µM	0.727 µM	> 100 µM	0.348 µM	> 100 µM	12.3 µM	> 100 µM	0.865 µM	13.5 µM	3.29 µM	> 100 µM	2.24 µM	> 100 µM	0.815 µM	16.5 µM	1.67 µM	25.2 µM	1.1 µM	26.2 µM
NC(CO)C(=O)NCC(=O)O (stereo not drawn)		> 100 µM		> 100 µM		> 100 µM		> 100 µM		> 100 µM		> 100 µM		> 100 µM		> 100 µM		> 100 µM		> 100 µM
COc1cc(C2C3=C(COC3=O)Nc3cc4c(cc32)OCO4)cc2c1OCO2 (stereo not drawn)	0.0905 µM	3.49 µM	0.109 µM	> 100 µM	0.0393 µM	> 100 µM	0.0827 µM		0.0267 µM	0.0695 µM	0.102 µM	> 100 µM	0.0629 µM	> 100 µM	0.113 µM	> 26 µM	0.0706 µM		0.111 µM	> 100 µM
CC12CCC(O)CC1=CCC1C2CCC2(C)C(c3cccnc3)=CCC12 (stereo not drawn)	> 100 µM	> 100 µM	> 100 µM	> 100 µM	> 100 µM	> 100 µM	> 100 µM	> 100 µM	> 100 µM	> 100 µM	> 100 µM	> 100 µM	> 100 µM	> 100 µM	> 100 µM	> 100 µM	> 100 µM	> 100 µM	70.1 µM	> 100 µM
O=C(c1ccccc1O)c1[nH]c(Cl)c(Cl)c1-n1c(C(=O)c2ccccc2O)cc(Cl)c1Cl	0.336 µM and 0.344 µM	4.76 µM and 10.4 µM	0.316 µM and 0.298 µM	12.1 µM and 11.1 µM	0.407 µM and 0.258 µM	10.6 µM and 10.3 µM	1.63 µM and 0.706 µM	14.9 µM and 5.97 µM	1.03 µM and 0.704 µM	13.1 µM and 13.4 µM	0.643 µM and 0.558 µM	10.9 µM and 15.8 µM	0.411 µM and 0.276 µM	9.21 µM and 2.37 µM	0.335 µM and 1.13 µM	1.41 µM and 5.68 µM	1.86 µM and 2.31 µM	7.11 µM and 13.1 µM	1.29 µM and 1.42 µM	12.3 µM and 13.6 µM
COc1ccc(-c2nnc(Nc3nc(O)c(C4=c5cc(F)ccc5=NC4=O)s3)o2)cc1	20 µM	42.7 µM	44.7 µM	> 100 µM	34.5 µM	> 100 µM	46.3 µM	> 100 µM	14.8 µM	42.3 µM	54.4 µM	> 100 µM	32.4 µM	> 100 µM	33.7 µM	> 100 µM	> 100 µM	> 100 µM	25.3 µM	61.2 µM
COc1cc2c(cc1O)C(c1cc(O)c(O)c(OC)c1)C(O)(C(=O)O)C(CO)C2O (stereo not drawn)		42.7 µM		> 100 µM		42.5 µM		> 100 µM		> 100 µM		> 100 µM		> 100 µM		> 100 µM		> 100 µM		> 100 µM
CC(=O)c1cccc(NC(=O)c2ccc(NC3=C(Cl)C(=O)N(Cc4ccccc4)C3=O)cc2)c1	12.6 µM	25.9 µM	16.8 µM	44.5 µM	9.34 µM	> 100 µM	9.9 µM	28.1 µM	9.57 µM	22.7 µM	14.3 µM	50.7 µM	15.9 µM	36.4 µM	2.38 µM	11.5 µM	> 100 µM	> 100 µM	17.9 µM	44.5 µM
O=Nc1c(O)c2ccccc2c2ccccc12	0.371 µM	1.33 µM	0.398 µM	2.4 µM	1.46 µM	4.11 µM	2.03 µM	3.83 µM	0.754 µM	2.45 µM	0.653 µM	3.88 µM	0.633 µM	2.73 µM	1.8 µM	3.99 µM	2.48 µM	6.27 µM	0.496 µM	2.09 µM
CC(=O)c1ccc2c(c1)N(CCCN(C)C)c1ccccc1S2	11.3 µM	23.7 µM	16 µM	31.2 µM	16.6 µM	34.5 µM	21.3 µM	55.1 µM	16.5 µM	31.4 µM	17.7 µM	37.4 µM	14.2 µM	30.2 µM	18.1 µM	35.7 µM	13.1 µM	26.3 µM	15.1 µM	32.1 µM
Cc1cc(O)cc(C)c1/C=C/c1cncc(C(=O)OC(C)(C)C)c1	14.1 µM	> 25 µM	11.5 µM	> 25 µM	11.8 µM	> 25 µM	> 25 µM	> 25 µM	17 µM	> 25 µM	18 µM	> 25 µM	10.4 µM	> 25 µM	> 22.1 µM	> 25 µM	16.1 µM	> 25 µM	14.9 µM	> 25 µM
CC1(C)CC(=O)c2c(ccc(C(=O)C[C@@H](N)CO)c2N)O1	0.347 µM	> 100 µM	0.177 µM	12.2 µM	0.399 µM	> 52.5 µM	0.871 µM	> 37.4 µM	0.431 µM	> 38.2 µM	1.08 µM	> 69.6 µM	2.1 µM	> 100 µM	1.04 µM	9.33 µM	7.32 µM	> 100 µM	0.328 µM	> 100 µM

— PubChem BioAssay (NCI)
